Values joined by “and” are separate entries in the source; they are usually repeats but may differ in a detail not shown here. Equal values may be shown once.
Tested on: not listed separately
Test: Determination of lipophilicity (octanol/water distribution by UV absorbance)
Format: physicochemical
Conditions: not given
Method: A 250 mL volume of n-octanol was shaken with 100 mL of ddH2O and left overnight. […]
The absorption of the octanol layer and water layers were measured and compared with the absorbance of the stock solutions. Measurements were repeated three times and the distribution coefficients were reported as the average. The percent of IL in octanol was calculated as the absorbance of the octanol layer after extraction divided by the absorbance of IL in octanol before extraction. The water/octanol distribution coefficient was calculated as the logarithm of the percent of IL in octanol divided by the percent of IL in water.

SMILES | log Po/w
CCCCCCCC/C=C\CCCCCCCC(=O)[O-].CCCCCCCCCCCCCC[P+](CCCCCC)(CCCCCC)CCCCCC [LANL-19, [PC14H29(C6H13)3][oleate]] | 1.14
CC(C)=CCC/C(C)=C/C(=O)[O-].CCCCCCCCCCCCCC[P+](CCCCCC)(CCCCCC)CCCCCC [LANL-22, [PC14H29(C6H13)3][geranate]] | 0.86

Same assay, conditions: after extraction with water, Table 3

SMILES | percent in octanol
C[N+](C)(C)CCO.O=S(=O)([N-]S(=O)(=O)C(F)(F)F)C(F)(F)F [LANL-12, choline-NTf2] | 67 +/− 9%
CCCCCCCC/C=C\CCCCCCCC(=O)[O-].CCCCCCCCCCCCCC[P+](CCCCCC)(CCCCCC)CCCCCC [LANL-19, [PC14H29(C6H13)3][oleate]] | 93 +/− 2%
CC(C)=CCC/C(C)=C/C(=O)[O-].CCCCCCCCCCCCCC[P+](CCCCCC)(CCCCCC)CCCCCC [LANL-22, [PC14H29(C6H13)3][geranate]] | 88 +/− 6%

Same assay, conditions: octanol/water, Table 3

SMILES | log Po/w
C[N+](C)(C)CCO.O=S(=O)([N-]S(=O)(=O)C(F)(F)F)C(F)(F)F [LANL-12, choline-NTf2] | 0.31

Tested on: not listed separately
Test: Density (volumetric flask and balance)
Format: physicochemical
Conditions: 25° C.
Method: (§1) Determinations of conductivity were made on an ION450 benchtop meter (Radiometer Analytical) with a 2-pole electrode designed for use in viscous liquids (Radiometer Analytical CDC241-9) and calibrated with KCl. Conductivity was measured three times per sample on stirred 3 mL volumes of neat IL at 25° C. Density was measured three times per IL using a 1 mL volumetric flask and an analytical balance.

SMILES | density
C[N+](C)(C)CCO.O=S(=O)([N-]S(=O)(=O)C(F)(F)F)C(F)(F)F [LANL-12, choline-NTf2] | 1.5 g/mL and 1.53 g/mL
CCCCCCCC/C=C\CCCCCCCC(=O)[O-].CCCCCCCCCCCCCC[P+](CCCCCC)(CCCCCC)CCCCCC [LANL-19, [PC14H29(C6H13)3][oleate]] | 0.882 g/mL
CC(C)=CCC/C(C)=C/C(=O)[O-].CCCCCCCCCCCCCC[P+](CCCCCC)(CCCCCC)CCCCCC [LANL-22, [PC14H29(C6H13)3][geranate]] | 0.931 g/mL

Same assay, conditions: Table 5

SMILES | density [g/mL]
C[N+](C)(C)CCO.O=S(=O)([N-]S(=O)(=O)C(F)(F)F)C(F)(F)F [LANL-12, choline-NTf2] | 1.54
CCCCCCCC/C=C\CCCCCCCC(=O)[O-].CCCCCCCCCCCCCC[P+](CCCCCC)(CCCCCC)CCCCCC [LANL-19, [PC14H29(C6H13)3][oleate]] | 0.882
CC(C)=CCC/C(C)=C/C(=O)[O-].CCCCCCCCCCCCCC[P+](CCCCCC)(CCCCCC)CCCCCC [LANL-22, [PC14H29(C6H13)3][geranate]] | 0.931

Tested on: not listed separately
Test: Conductivity of neat IL
Format: physicochemical
Conditions: 25° C.
Method: as §1

SMILES | conductivity [mS/cm]
C[N+](C)(C)CCO.O=S(=O)([N-]S(=O)(=O)C(F)(F)F)C(F)(F)F [LANL-12, choline-NTf2] | 1.46
CCCCCCCC/C=C\CCCCCCCC(=O)[O-].CCCCCCCCCCCCCC[P+](CCCCCC)(CCCCCC)CCCCCC [LANL-19, [PC14H29(C6H13)3][oleate]] | 0.016
CC(C)=CCC/C(C)=C/C(=O)[O-].CCCCCCCCCCCCCC[P+](CCCCCC)(CCCCCC)CCCCCC [LANL-22, [PC14H29(C6H13)3][geranate]] | 0.156

Same assay, conditions: Table 5

SMILES | conductivity [mS/cm]
C[N+](C)(C)CCO.O=S(=O)([N-]S(=O)(=O)C(F)(F)F)C(F)(F)F [LANL-12, choline-NTf2] | 1.460
CCCCCCCC/C=C\CCCCCCCC(=O)[O-].CCCCCCCCCCCCCC[P+](CCCCCC)(CCCCCC)CCCCCC [LANL-19, [PC14H29(C6H13)3][oleate]] | 0.0162
CC(C)=CCC/C(C)=C/C(=O)[O-].CCCCCCCCCCCCCC[P+](CCCCCC)(CCCCCC)CCCCCC [LANL-22, [PC14H29(C6H13)3][geranate]] | 0.156

Tested on: not listed separately
Test: Viscosity (Viscolab 3000 viscometer)
Format: physicochemical
Conditions: 25° C.
Method: Viscosity was measured on 1 mL samples with a Viscolab 3000 viscometer (Cambridge Viscosity, Medford, MA). […] Low-temperature differential scanning calorimetry (DSC) was performed on a DSC882e instrument (Mettler-Toledo Inc., Columbus, Ohio) under N2 atmosphere over two complete scans of a temperature range of −60 to 120° C. with a ramp rate of 10° C. per minute and a sample size of 18-21 mg in an aluminum crucible.

SMILES | viscosity [cP]
C[N+](C)(C)CCO.O=S(=O)([N-]S(=O)(=O)C(F)(F)F)C(F)(F)F [LANL-12, choline-NTf2] | 125
CCCCCCCC/C=C\CCCCCCCC(=O)[O-].CCCCCCCCCCCCCC[P+](CCCCCC)(CCCCCC)CCCCCC [LANL-19, [PC14H29(C6H13)3][oleate]] | 299
CC(C)=CCC/C(C)=C/C(=O)[O-].CCCCCCCCCCCCCC[P+](CCCCCC)(CCCCCC)CCCCCC [LANL-22, [PC14H29(C6H13)3][geranate]] | 122

Same assay, conditions: Table 5

SMILES | viscosity [cP]
C[N+](C)(C)CCO.O=S(=O)([N-]S(=O)(=O)C(F)(F)F)C(F)(F)F [LANL-12, choline-NTf2] | 125
CCCCCCCC/C=C\CCCCCCCC(=O)[O-].CCCCCCCCCCCCCC[P+](CCCCCC)(CCCCCC)CCCCCC [LANL-19, [PC14H29(C6H13)3][oleate]] | 300
CC(C)=CCC/C(C)=C/C(=O)[O-].CCCCCCCCCCCCCC[P+](CCCCCC)(CCCCCC)CCCCCC [LANL-22, [PC14H29(C6H13)3][geranate]] | 122.3

Tested on: not listed separately
Test: Solubility in water (physical characterization)
Conditions: 25° C.

SMILES | solubility in water [mM]
C[N+](C)(C)CCO.O=S(=O)([N-]S(=O)(=O)C(F)(F)F)C(F)(F)F [LANL-12, choline-NTf2] | 1700

Tested on: porcine skin
Test: Skin transport of 3H-Mannitol in Franz diffusion cell
Format: in vitro ADME
Conditions: 3H-Mannitol
Method: FIG. 1 is a schematic of the skin transport experiment set-up and analysis. Porcine skin was loaded into the Franz diffusion cell (FDC) with the stratum corneum (SC) facing up. Skin was incubated in contact with 3H-labeled drug dissolved in donor solution for 24 hrs, at 37° C., with stirring. After 24 hrs the donor solution was removed and skin thoroughly washed. The SC was separated from the epidermis by tape stripping. Ten tape strips were applied, each tape corresponding to 1 “layer” of SC. Ten tape strips were assumed to remove the entire SC. Epidermis was separated from dermis using a razor blade. Acceptor solution was collected, and drug transport into various tissue layers was quantified by scintillation counter.
3H-labeled Mannitol and Cefadroxil were obtained from American Radiolabeled Chemicals, Inc. and Moravek, respectively. FDCs were used to assess the transport enhancement of ionic liquids using a previously established protocol. Karande, et al., “Discovery of transdermal penetration enhancers by high-throughput screening”, Nat Biotechnol, 22(2): 192-7 (2004). Briefly, the acceptor chamber was filled with degassed PBS and a small stir bar added. Thawed porcine skin was clamped in place between the acceptor and donor chambers with the SC facing up. Care was taken to ensure no air bubbles resided in the acceptor chamber. Ionic liquids or PBS (control) were spiked with 3H-labeled drug (Mannitol and Cefadroxil) to a final concentration of 10 μCi/ml. 300 μL of donor solution was added to the donor chamber and incubated in contact with the SC for 24 hr, at 37° C., with stirring.
After 24 hr, the donor solution was removed, and the skin was thoroughly washed and dried.
SC was separated from epidermis by tape stripping. Ten tape strips were performed in an identical fashion, with each tape corresponding to 1 SC “layer”. Ten strips were assumed to remove the majority of the SC. Epidermis was separated from dermis with a razor blade, and the acceptor solution was collected from the acceptor chamber. Samples from each tissue layer and acceptor solution were dissolved in Soluble (Perkin Elmer, Waltham, MA) overnight and the concentration of radiolabeled solute was measured using a scintillation counter (Packard Tri-Carb 2100 TR, Meriden, CT).

SMILES | loss/partitioning of solute to the acceptor solution
CCCCCCCC/C=C\CCCCCCCC(=O)[O-].CCCCCCCCCCCCCC[P+](CCCCCC)(CCCCCC)CCCCCC [LANL-19, [PC14H29(C6H13)3][oleate]] | no additional loss of solute to the acceptor solution

Same assay, conditions: 3H-Mannitol, relative to PBS control

SMILES | transport enhancement into/through all layers of the skin
CCCCCCCC/C=C\CCCCCCCC(=O)[O-].CCCCCCCCCCCCCC[P+](CCCCCC)(CCCCCC)CCCCCC [LANL-19, [PC14H29(C6H13)3][oleate]] | 5-10 fold

Same assay, conditions: materials in lower right portion of Walden plot

SMILES | skin transport properties
CCCCCCCC/C=C\CCCCCCCC(=O)[O-].CCCCCCCCCCCCCC[P+](CCCCCC)(CCCCCC)CCCCCC [LANL-19, [PC14H29(C6H13)3][oleate]] | best skin transport properties

Tested on: not listed separately
Test: Calculations of molarity and ionic strength
Format: physicochemical
Conditions: neat IL, Table 5

SMILES | ionic strength [M] | molarity [M]
C[N+](C)(C)CCO.O=S(=O)([N-]S(=O)(=O)C(F)(F)F)C(F)(F)F [LANL-12, choline-NTf2] | 4.40 | 4.40
CCCCCCCC/C=C\CCCCCCCC(=O)[O-].CCCCCCCCCCCCCC[P+](CCCCCC)(CCCCCC)CCCCCC [LANL-19, [PC14H29(C6H13)3][oleate]] | 1.24 | 1.15
CC(C)=CCC/C(C)=C/C(=O)[O-].CCCCCCCCCCCCCC[P+](CCCCCC)(CCCCCC)CCCCCC [LANL-22, [PC14H29(C6H13)3][geranate]] | 1.43 | 1.43

— patent US11786597B2, “Ionic liquids for transdermal drug delivery” (priority 2013, dated 2023)
